In patent publication US4442031A, “Immunopotentiating peptides” (Hoffmann-La Roche Inc., priority 1983, dated 1984):
Where no end group is shown, it is not given here.

Assay: Restoration of thymus weight decreased by 5-FU injection
Type: in vivo, mice
Details: for Av. thymus weight mg: 8 days after 5-FU, control 39.4, 5-FU alone 23.4; for Av. thymus weight %: % of control; for Restoration Activity(%): thymus weight
Experimental: It is known that anticancer drugs suppress immunological functions by affecting immunocytes. The thymus gland, which is essential for differentiation, maturation and supply to T-cells responsible for immunological reactions, decreases markedly in weight after injection of 5-FU. […] FIfty μg/kg of Compound A administered orally was as effective as 5 μg/kg of thymosin α1 injected intraperitoneally, when the thymus weight was measured immediately after the DTH measurement at 8 days after the 5-FU injection (see Table 5).
*Seven mice per group received the test compound one day before,
concurrently with, and 1 and 2 days after 5FU injection i.p. (100 mg/kg).
The mice were injected CRBC for The DTH assay at 3 and 7 days after the
The thymus weight was measured at 8 days after the 5FU injection.

Substance | restoration of thymus weight (in words) (50 μg/kg orally, one day before, concurrently with, and 1 and 2 days after 5-FU (100 mg/kg)) | Av. thymus weight mg (5-FU (100 mg/kg i.p.) plus 5.0 μg/kg/day p.o.) [mg] | Av. thymus weight mg (5-FU (100 mg/kg i.p.) plus 50.0 μg/kg/day p.o.) [mg] | Av. thymus weight % (5-FU plus 5.0 μg/kg/day p.o.) [%] | Av. thymus weight % (5-FU plus 50.0 μg/kg/day p.o.) [%] | Restoration Activity(%) (5-FU plus 50.0 μg/kg/day p.o.) | Av. thymus weight mg (5-FU (100 mg/kg i.p.) plus 0.5 μg/kg/day i.p.) [mg] | Av. thymus weight mg (5-FU (100 mg/kg i.p.) plus 5.0 μg/kg/day i.p.) [mg] | Av. thymus weight % (5-FU plus 0.5 μg/kg/day i.p.) [%] | Av. thymus weight % (5-FU plus 5.0 μg/kg/day i.p.) [%] | Restoration Activity(%) (5-FU plus 0.5 μg/kg/day i.p.) | Restoration Activity(%) (5-FU plus 5.0 μg/kg/day i.p.)
KKEVVE [Compound A, L-Lysyl-L-lysyl-L-glutamyl-L-valyl-L-valyl-L-glutamic acid] | restore the decreased thymus weight | 23.0 ± 1.6 | 26.6 ± 1.0 | 58.4 | 67.5 | 20.0 | – | – | – | – | – | –
thymosin α1 (SDAAVDTSSEITTKDLKEKKEVVEEAEN; ends and bridges not checked; UniProt P01252 2-29, looked up) [peptide isolated from bovine thymus, stimulates maturation, differentiation and function of T cells; U.S. Pat. No. 4,079,127, reference compound] | – | – | – | – | – | – | 24.9 ± 1.7 | 26.7 ± 1.1 | 63.2 | 67.8 | 9.4 | 20.6
